Results reported in paper PMC11397024, “Strategic Fluorination to Achieve a Potent, Selective, Metabolically Stable, and Orally Bioavailable Inhibitor of CSNK2” (Molecules, 2024).

Key:
CLK1 = target: T1, CLK1 (Homo sapiens, UniProt P49759); test: NanoBRET dose-response CLK1; format: cell-based
T1 construct: purchased Promega (NanoBRET Target Engagement K192 Kinase Selectivity System)

CSNK2 = test: In vivo CSNK2 inhibition (substrate phosphorylation in lungs); set-up: species or system Balb/c mice; settings: 30 mg/kg p.o. b.i.d.
Method: Balb/c mice (female, 8-10 weeks old, from Envigo, Inotiv, Indianapolis, IN, USA) were treated with compound 2 at 30 mg/kg p.o. in a vehicle (DMSO/PEG-400/Water (v/v/v), 10:30:60). Mice were dosed every 12 h for a total of 36 h (3 doses). At the determined time points, mice were euthanized using an overdose of isoflurane (Baxter, Deerfield, IL, USA). Blood was collected via cardiac puncture and lung lobes were collected for downstream processing and analysis. Recovered blood was placed in EDTA tubes, spun at 5000× g in a microcentrifuge and the recovered plasma transferred to a clean tube and frozen at -80 °C until analysis. The left lung lobe was added to a 2 mL O-ring skirted tube containing 750 μL of 1 × PBS containing Phos Stop (per the manufacturer's recommendation, Roche) and glass beads. Lungs were homogenized for 60 s at 6000 rpm in a Roche MagNA Lyser. Homogenates were centrifuged for 5 min at 10,000 rpm and 500 μL of the homogenate was transferred to a clean tube and frozen at -80 °C until analysis. […] Samples were quantified using the Piece Rapid Gold BCA Protein Assay kit (ThermoFisher, A53226, Waltham, MA, USA), and 50 μg protein was run on 4-20% Tris-Glycine gels and transferred to PVDF. […] Bands were quantified using Fiji and normalized to GAPDH. […]

[1] = Hepatocyte stability, human; format: in vitro ADME; settings: cryopreserved hepatocytes, over 2 h
Method: Human cryopreserved hepatocytes were supplied by BioIVT (lot QZW, 10 pooled donors, Westbury, NY, USA). Mouse cryopreserved hepatocytes were supplied by BioIVT (lot ZPG, pooled male CD-1). Vials of cryopreserved hepatocytes were removed from storage and thawed in a 37 °C water bath with gentle shaking, and then the contents were poured into a 50 mL thawing medium conical tube. Vials were centrifuged at 100× g for 10 min at room temperature. The thawing medium was aspirated, and hepatocytes were resuspended with a serum-free incubation medium to yield ~1.5 × 10^6 cells/mL. Cell viability and density were counted using AO/PI fluorescence staining, and then cells were diluted with a serum-free incubation medium to a working cell density of 0.5 × 10^6 viable cells/mL. Aliquots of 198 μL of hepatocytes were dispensed into each well of a 96-well noncoated plate. The plate was placed in an incubator for approximately 10 min. […] Peak areas were determined from extracted ion chromatograms, and the slope value, k, was determined by linear regression of the natural logarithm of the remaining percentage of the parent drug vs. incubation time curve. The intrinsic clearance (CLint in μL/min/10^6 cells) was calculated using the relationship CLint = kV/N, where V is the incubation volume (0.2 mL) and N is the number of hepatocytes per well (0.1 × 10^6 cells). […]

192 human kinases = test: NanoBRET K192 panel, whole panel; format: cell-based; settings: six off-target kinases, dose-response experiments
Method: The K192 selectivity assay was run according to the Draft Promega technical manual, NanoBRET^TM Target Engagement K192 Kinase Selectivity System. Reagents were supplied by Promega (Promega NP 4101). For the assay, DNA from the prepared kinase vector panel plates A and B were mixed with Fugene in 96-well plates (Corning 3917) and incubated at room temperature for 30 min. The NanoLuc® Low control vector pNL1.1.CMV [Nluc/CMV] Vector (Cat.# N1091) and the transfection control vector NanoLuc®-HIPK2 Fusion Vector (Cat.# NV3221) were used as controls.
HEK293 cells were grown to 75–95% confluency in DMEM (Gibco 11995-065) supplemented with FBS (Avantor 97068-085) at 37 °C in 5% RH. […]
On day two of the assay, 5 μL of 20X K10 tracer was prepared and added at concentrations recommended by Promega. […] After 2–3 min, the plate was shaken at 300 RPM for 10 s, and the donor emission wavelength (450 nm) and acceptor emission wavelength (610 nm) were measured using the Glomax® Discover System.
As a quality check, the donor signal-to-background ratio was calculated for each individual kinase by dividing the mean donor signal for each kinase by the mean donor signal for the signal-to-background control wells. Fractional occupancy of the test drug for each kinase was determined using the following formula:Occupancy (%) = [1 − (Sample − Bottom)/(Top − Bottom)] × 100 where

T1 sequence (P49759 whole entry): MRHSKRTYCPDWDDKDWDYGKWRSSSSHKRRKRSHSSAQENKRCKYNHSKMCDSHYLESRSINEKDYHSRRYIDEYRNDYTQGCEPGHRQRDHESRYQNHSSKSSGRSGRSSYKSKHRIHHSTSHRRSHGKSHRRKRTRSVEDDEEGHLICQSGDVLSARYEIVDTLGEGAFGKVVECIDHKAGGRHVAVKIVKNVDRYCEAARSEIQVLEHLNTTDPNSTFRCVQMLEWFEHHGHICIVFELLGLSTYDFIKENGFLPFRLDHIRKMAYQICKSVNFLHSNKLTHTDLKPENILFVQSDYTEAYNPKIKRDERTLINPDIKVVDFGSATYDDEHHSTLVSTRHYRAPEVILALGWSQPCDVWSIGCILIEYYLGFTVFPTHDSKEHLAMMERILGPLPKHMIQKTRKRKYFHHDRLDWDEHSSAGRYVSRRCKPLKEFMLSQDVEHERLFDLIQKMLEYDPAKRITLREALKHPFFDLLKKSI

CCC(=O)Nc1cc(Nc2cc(NC3CC3)n3ncc(C#N)c3n2)c(F)cc1N1CCC[C@H](NC)C1 [Compound 2, (S)-N-(5-((3-cyano-7-(cyclopropylamino)pyrazolo[1,5-a]pyrimidin-5-yl)amino)-4-fluoro-2-(3-(methylamino)piperidin-1-yl)phenyl)propionamide]
IC50 (CLK1): 29 µM | EIF2S2 (phospho-Ser2) levels normalized to total EIF2S2 in mouse lungs (CSNK2; 3, 6, 36 h, small decrease at 3 h, p = 0.14): no statistically significant difference | AKT (phospho-Ser129) levels normalized to total AKT in mouse lungs (CSNK2; 3 h time point, p = 0.0028): A decrease in the phosphorylation levels of Ser129 of AKT | CLint scaled at 1 μM [1]: 6.9 mL/min/kg | selectivity compared to CSNK2A1 and CSNK2A2 (192 human kinases): ≥ 1000 fold
